Patent US11026936B2, “Piperidinyl-propanone derivatives” (Merck Patent GmbH, priority 2016, dated 2021)

The compounds below were run against PDHK2 (Homo sapiens (Human), UniProt Q15119) (assay: Biochemical activity testing of PDHK2: PDC inactivation assay). Conditions: human rec PDHK2, PDC from porcine heart, ATP 5 μM; read-out: IC50 PDHK2 (enzyme assay).
From the text: Biochemical Activity Testing of PDHK2: PDC Inactivation Assay
The biochemical activity assay for PDHK2 is based on the inactivation of PDC through phosphorylation by PDHK2. The assay is run in two steps: the enzymatic PDHK2 reaction in which isolated PDC is phosphorylated by PDHK2 with ATP as co-substrate and the PDC activity assay in which pyruvate and NAD are converted to acetyl-CoA and NADH. The PDC activity correlates to the increase in NADH and thereby is detectable directly via the increasing fluorescence signal (Exc 340 nm, Em 450 nm). Inhibition of PDHK2 results in a lower phosphorylation status and thereby a less decrease in activity of PDC and a stronger increase in NADH fluorescence signal.
The PDC inactivation assay is performed in Greiner 384-well microtiter plates and is used for high throughput screen. 4 μl of PDHK2 (human, rec, Carna Bioscience, 10 ng/μl-137 nM final concentration) and PDC (isolated from porcine heart, Sigma-Aldrich, 20 mU/ml final concentration) are incubated in the absence or presence of the test compound (10 dilution concentrations) for 30 min at room temperature in kinase buffer (15 mM potassium phosphate buffer, pH 7.0, 60 mM KCl, 1.5 mM DTT, 2.5 mM MgCl2, 0.0125% (w/v) BSA, 0.125% Pluronic F-68). The kinase reaction is started by the addition of 4 μl ATP substrate solution (fc 5 μM in kinase buffer). After 30 min incubation at 37° C. 40 μl of PDC reaction solution (100 mM Tris/HCl, pH 7.8, 0.5 mM EDTA, 1 mM MgCl2, 50 mM NaF, 0.25 mM Coenzyme A, 5 mM pyruvate, 1 mM NAD, 5 mM DTT, 1 mM thiamine pyrophosphate) is added. The first fluorescence measurement is performed on a Perkin Elmer Envision (Exc 340 nm, Em 450 nm). The reaction is incubated for 45 min at room temperature. Afterwards a second fluorescence measurement is performed and the PDC activity is calculated by the difference between both measurements. As full value for the PDHK2 assay the inhibitor-free PDHK2 reaction is used. The pharmacological zero value used is DCA (Sigma-Aldrich) in a final concentration of 3 mM. The inhibitory values (IC50) were determined using either the program Symyx Assay Explorer® or Condosseo® from GeneData.

IC50 [µM] | SMILES
1.9 | COc1ccc(-c2nnc(C3([C@@H]4CCN(C(=O)[C@@](C)(O)C(F)(F)F)C[C@@H]4C)CC3)o2)cc1 [Compound A30, (R)-3,3,3-Trifluoro-2-hydroxy-1-((3R,4R)-4-{1-[5-(4-methoxy-phenyl)-[1,3,4]oxadiazol-2-yl]-cyclopropyl}-3-methyl-piperidin-1-yl)-2-methyl-propan-1-one]
7.3 | Cc1ccc(-c2nnc(C3([C@@H]4CCN(C(=O)[C@@](C)(O)C(F)(F)F)C[C@@H]4C)CC3)o2)cc1 [Compound A24, (R)-3,3,3-Trifluoro-2-hydroxy-2-methyl-1-{(3R,4R)-3-methyl-4-[1-(5-p-tolyl-[1,3,4]oxadiazol-2-yl)-cyclopropyl]-piperidin-1-yl}-propan-1-one]
4.9 | Cc1ccc(-c2nnc(C3([C@@H]4CCN(C(=O)[C@@](C)(O)C(F)(F)F)C[C@@H]4C)CC3)[nH]2)cc1 [Compound A21, (R)-3,3,3-Trifluoro-2-hydroxy-2-methyl-1-{(3R,4R)-3-methyl-4-[1-(5-p-tolyl-4H-[1,2,4]triazol-3-yl)-cyclopropyl]-piperidin-1-yl}-propan-1-one]
18 | C[C@H]1CN(C(=O)[C@@](C)(O)C(F)(F)F)CC[C@H]1C1(c2nnc(-c3ccc(Cl)cc3)[nH]2)CC1 [Compound A33, (R)-1-((3R,4R)-4-{1-[5-(4-Chloro-phenyl)-4H-[1,2,4]triazol-3-yl]-cyclopropyl}-3-methyl-piperidin-1-yl)-3,3,3-trifluoro-2-hydroxy-2-methyl-propan-1-one]
8.2 | C[C@H]1CN(C(=O)[C@@](C)(O)C(F)(F)F)CC[C@H]1C1(c2nnc(-c3ccc(Cl)cc3)o2)CC1 [Compound A36, (R)-1-((3R,4R)-4-{1-[5-(4-Chloro-phenyl)-[1,3,4]oxadiazol-2-yl]-cyclopropyl}-3-methyl-piperidin-1-yl)-3,3,3-trifluoro-2-hydroxy-2-methyl-propan-1-one]
2.6 | C[C@H]1CN(C(=O)[C@@](C)(O)C(F)(F)F)CC[C@H]1C1(c2nnc(-c3ccc(F)cc3)[nH]2)CC1 [Compound A18, (R)-3,3,3-Trifluoro-1-((3R,4R)-4-{1-[5-(4-fluoro-phenyl)-4H-[1,2,4]triazol-3-yl]-cyclopropyl}-3-methyl-piperidin-1-yl)-2-hydroxy-2-methyl-propan-1-one]
6 | COc1ccc(-c2nnc(C3([C@@H]4CCN(C(=O)[C@@](C)(O)C(F)(F)F)C[C@@H]4C)CC3)[nH]2)cn1 [Compound A39, (R)-3,3,3-Trifluoro-2-hydroxy-1-((3R,4R)-4-{1-[5-(6-methoxy-pyridin-3-yl)-4H-[1,2,4]triazol-3-yl]-cyclopropyl}-3-methyl-piperidin-1-yl)-2-methyl-propan-1-one]
6.6 | C[C@H]1CN(C(=O)[C@@](C)(O)C(F)(F)F)CC[C@H]1C1(c2nnc(-c3ccccc3)[nH]2)CC1 [Compound A13, (R)-3,3,3-Trifluoro-2-hydroxy-2-methyl-1-{(3R,4R)-3-methyl-4-[1-(5-phenyl-4H-[1,2,4]triazol-3-yl)-cyclopropyl]-piperidin-1-yl}-propan-1-one]
13 | COc1ccc(-c2nnc(C3([C@@H]4CCN(C(=O)[C@@](C)(O)C(F)(F)F)C[C@@H]4C)CC3)[nH]2)cc1 [Compound A27, (R)-3,3,3-Trifluoro-2-hydroxy-1-((3R,4R)-4-{1-[5-(4-methoxy-phenyl)-4H-[1,2,4]triazol-3-yl]-cyclopropyl}-3-methyl-piperidin-1-yl)-2-methyl-propan-1-one]
